# From patent publication US5008283A (Pfizer Inc., priority 1990, dated 1991)
# Key:
# collagenase [1] = test: Inhibition of release of activated collagenase by IgG-stimulated neutrophils; format: cell-based, human; settings: for inhibitory effect on the release of activated collagenase by neutrophils (in words): as shown in Table I; for Inhibition of Activated Neutrophil Collagenase Release, % Inhibition: human neutrophils on IgG coated wells; for inhibitory effect on the release of activated collagenase (in words): at supraphysiological concentrations for those compounds
# Description: (§1) Whole human blood from normal volunteers was obtained by venipuncture into heparinized syringes. The majority of the red cells were removed by dextran sedimentation and neutrophils were separated by density centrifugation over hypaque ficoll. The neutrophil rich fraction was washed and residual red cells were removed by hypotonic lysis according to the procedure described by Blackburn, W.D. et al., Arthritis Rheum. 30:1006-1014 (1987). The neutrophils so prepared were used in the assays described below and cell viability was assured by determining their ability to exclude typan blue. In each assay the cell viability routinely exceeded 95%.
# To assay for inhibition of release of activated collagenase by neutrophils,the following assay was performed. Neutrophil cell suspensions were incubated at 37° C. for 15-30 minutes in the presence of varying concentrations of tenidap or other compound under study. Tenidap was dissolved and diluted in water and added to the cells directly therefrom. Other compounds tested were initially dissolved in 0.1M NaOH and then diluted in water prior to addition to the cells. After the cells had been incubated in the presence of tenidap or other compound under study, the cell suspensions (5 × 10^6 cells/ml, 125 μl/well) were added to IgG coated and bovine serum albumin (BSA) blocked wells of microtiter plates and incubated for 45 minutes at 37° C. As controls, similar incubations were performed in the absence of IgG. Following incubation, the cell suspensions were centrifuged (750 × g) for 5 minutes at 4° C. The supernatants were removed and DFP (diisopropylfluorophosphate) was added to a final concentration of 10^-3 M to inactivate serine proteases.
# Then, the collagenase activity in the DFP treated supernatants was determined by incubating, in triplicate, 200 μl aliquots of supernatant with ^3 H-labeled reconstituted type-I collagen fibrils in 7 mm flat bottom tissue culture wells (Linbro®, Cat #76-032-05, Flow Laboratories McLean, Va) as described by Johnson-Wint, B., Anal. Biochem. 104:175-181 (1980). The reconstituted fibrils in each well contained 75 μg of a mixture of ^3 H-labeled and unlabeled collagen with an activity of 7,000 cpm. To determine the total radioactivity potentially released from the fibrils in each experiment, the reconstituted fibrils were also incubated with a mixture of clostridial collagenase (250 mg/ml HBSS (Hank's balanced salt solution, GIBCO, Grand Island, N.Y.)). To maximize sensitivity and specificity of the assay, incubations were performed for eighteen hours in triplicate at 37° C. At the end of the incubation period, the supernatants were aspirated from each well and the radioactivity was determined by counting in a liquid scintillation counter. Greater than 99% of the radioactivity applied to each well was recovered from wells incubated with bacterial collagenase. Average counts per minute released by fibrils incubated with buffer (HBSS) alone were subtracted from the cpm measured in each supernatant. The resulting triplicate values for each supernatant were averaged and divided by the average cpm released by the bacterial collagenase to determine the percent fibril lysis produced by each supernatant. The total activated collagen released during the eighteen hour incubation was then calculated and divided by the incubation time to yield values for the collagenase activity (ng collagen degraded/min) in each supernatant.
# collagenase [2] = test: Total collagenase released by IgG-stimulated neutrophils (supernatants activated with mersalyl); format: cell-based, human; settings: supernatants activated with organic mercurial, tenidap concentration not given
# Description: as §1
# In parallel experiments, release of total collagenase into the supernatants was determined by activating latent collagenase in the supernatants with 1.0 mM mersalyl (Harris, E.D. and Vater, C.A., Methodology of collagenase research: substrate purification, enzyme activation and purification. Collagenase in Normal Pathological Connective Tissues. Edited by D. E. Woolley, J. M. Evanson, Chichester, John Wiley & Sons, 1980) prior to addition of the supernatants to the radiolabeled collagen fibrils. […]
# myeloperoxidase = test: Myeloperoxidase activity assay (ABTS/hydrogen peroxide, absorbance at 412 nm); format: biochemical; settings: myeloperoxidase extracted from human neutrophils; varying concentrations of tenidap; figures not given
# Description: as §1
# Neutrophils (1.25 × 10^6 /ml, prepared as described above) were incubated for 60 minutes at 37° C. in either BSA or IgG coated tissue culture wells which had been blocked with BSA. Following incubation, the wells were aspirated and the cells were removed by centrifugation. […] Myeloperoxidase activity was then determined by adding 20 μl of the supernatant to 300 μl of 0.2M sodium acetate buffer, pH 4.5, containing 17 mg of 2,2'-azino-di-(3-ethylbenzthiazoline)sulfonic acid and 600 μl of 0.003% hydrogen peroxide. The activity of myeloperoxidase in the supernatant was then determined by the change in absorbance at 412 nm using a spectrophotometer as described by Shindler, J.S. et al., Eur. J. Biochem. 65:325-331 (1976).
compound,measurement,setting,value
CC(C)Cc1ccc(C(C)C(=O)O)cc1 (stereo not drawn) [Ibuprofen],inhibitory effect on the release of activated collagenase by neutrophils (in words),collagenase [1],no inhibitory effect
same,"Inhibition of Activated Neutrophil Collagenase Release, % Inhibition",collagenase [1]; peak concentration 175 μM,0%
COc1ccc2c(c1)c(CC(=O)O)c(C)n2C(=O)c1ccc(Cl)cc1 [Indomethacin],inhibitory effect on the release of activated collagenase (in words),collagenase [1],some inhibitory effect
same,"Inhibition of Activated Neutrophil Collagenase Release, % Inhibition",collagenase [1]; peak concentration 2.5 μM,14%
COc1ccc2cc([C@H](C)C(=O)O)ccc2c1 [Naproxen],inhibitory effect on the release of activated collagenase by neutrophils (in words),collagenase [1],no inhibitory effect
same,"Inhibition of Activated Neutrophil Collagenase Release, % Inhibition",collagenase [1]; peak concentration 80 μM,0%
CN1C(C(=O)Nc2ccccn2)=C(O)c2ccccc2S1(=O)=O [Piroxicam],inhibitory effect on the release of activated collagenase (in words),collagenase [1],some inhibitory effect
same,"Inhibition of Activated Neutrophil Collagenase Release, % Inhibition",collagenase [1]; peak concentration 25 μM,18%
"NC(=O)N1C(=O)C(C(=O)c2cccs2)c2cc(Cl)ccc21 (stereo not drawn) [Tenidap, 5-chloro-2,3-dihydro-2-oxo-3-(2-thienylcarbonyl)-indole-1-carboxamide]",inhibition of the total amount of collagenase released by neutrophils,collagenase [2],22%
same,inhibition of the release of activated collagenase from neutrophils (in words),collagenase [1]; at clinically relevant concentrations,significantly inhibited
same,"Inhibition of Activated Neutrophil Collagenase Release, % Inhibition",collagenase [1]; peak concentration 87.5 μM,64%
same,inhibition of the activity of myeloperoxidase (in words),myeloperoxidase,inhibit the activity of myeloperoxidase
